Oligonucleotides are written 5' to 3', each unit as a sugar letter and its base; * is a phosphorothioate linkage, no mark a phosphodiester; rarer units and linkages stand in square brackets, end groups in braces. Plain capitals give the bases only. d = 2'-deoxy (DNA)
Columns and labels:
[1] = tested on: BALB/c mice; test: Antigen-induced IgE and IgG2a production in the mouse; assay type: in vivo; conditions: i.p. 1-1000 μg/kg, serum study day 18, FIG. 19
Procedure: Methods: Mice (male BALB/c) were sensitized on study days 0 and 7 with antigen (ovalbumin, 10 μg, i.p.) and aluminum hydroxide adjuvant Pierce Alum, i.p.). Mice received SEQ ID NO:2 or SEQ ID NO:7 on study days −2, 0, 5 and 7 (i.e. two days before each sensitization and on the day of sensitization). Mice were bled by cardiac puncture on study day 18. Serum was collected by centrifugation and assayed by ELISA for ovalbumin-specific IgE and IgG2a.

[2] = target: T1, human TLR9 (Homo sapiens, UniProt Q9NR96); test: Stimulation of TLR9-transfected cells in vitro (luciferase readout); assay type: cell-based; conditions: quotient between highest value of all concentrations tested and medium control
T1 construct: expressed in transfected cells; host or cells: HEK 293
T1 sequence (Q9NR96 26-1032): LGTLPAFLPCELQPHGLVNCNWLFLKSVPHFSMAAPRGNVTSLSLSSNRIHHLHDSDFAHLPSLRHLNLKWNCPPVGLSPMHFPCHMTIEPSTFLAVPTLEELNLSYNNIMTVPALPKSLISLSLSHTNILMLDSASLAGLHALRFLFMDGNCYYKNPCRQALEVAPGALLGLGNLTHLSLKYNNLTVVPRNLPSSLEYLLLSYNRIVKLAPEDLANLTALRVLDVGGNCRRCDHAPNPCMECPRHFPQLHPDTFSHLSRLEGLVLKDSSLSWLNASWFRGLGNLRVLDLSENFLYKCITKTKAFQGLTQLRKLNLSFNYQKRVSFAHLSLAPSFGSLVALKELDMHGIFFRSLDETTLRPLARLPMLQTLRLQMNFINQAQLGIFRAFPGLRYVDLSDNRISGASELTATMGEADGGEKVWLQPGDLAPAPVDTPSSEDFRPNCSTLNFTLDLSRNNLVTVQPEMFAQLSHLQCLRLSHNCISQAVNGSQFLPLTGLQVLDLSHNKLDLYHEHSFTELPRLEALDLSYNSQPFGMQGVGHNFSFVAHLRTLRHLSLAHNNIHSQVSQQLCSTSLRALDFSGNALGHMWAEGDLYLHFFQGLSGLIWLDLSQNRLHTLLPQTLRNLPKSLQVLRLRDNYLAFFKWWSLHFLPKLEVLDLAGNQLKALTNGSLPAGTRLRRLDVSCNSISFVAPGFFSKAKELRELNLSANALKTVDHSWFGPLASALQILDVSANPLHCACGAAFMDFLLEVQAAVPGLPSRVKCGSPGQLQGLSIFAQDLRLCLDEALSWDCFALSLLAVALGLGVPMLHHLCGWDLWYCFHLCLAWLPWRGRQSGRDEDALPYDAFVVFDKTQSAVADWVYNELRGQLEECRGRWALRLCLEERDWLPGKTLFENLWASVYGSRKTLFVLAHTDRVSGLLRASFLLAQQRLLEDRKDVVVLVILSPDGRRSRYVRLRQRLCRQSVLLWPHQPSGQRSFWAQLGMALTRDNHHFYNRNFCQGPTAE
Procedure: Methods: HEK 293 cells transfected with human TLR9 were incubated with SEQ ID NO:1, SEQ ID NO:2, SEQ ID NO:3, SEQ ID NO:4, SEQ ID NO:5, or SEQ ID NO:6 for 16 hours. The signal was determined by a luciferase readout.
The EC50 was calculated using Sigma Plot (SigmaPlot 2002 for Windows version 8.0). The maximal stimulation index (max SI) was calculated as the quotient between the highest value of all concentrations tested for any ODN and the medium control.

[3] = tested on: BALB/c mice; assay type: in vivo; conditions: mouse
[4] = tested on: mouse splenocytes; test: Cytokine secretion from mouse splenocytes by SEQ ID NO: 2 and fragments; assay type: cell-based; conditions: 0.01-10 μg/ml, 36 hours, FIGS. 43-45
Procedure: Spleens were removed from 6 mice (male, BALB/c). The splenocytes from each spleen were separated by pushing gently through a cell sieve (70 μm pore size), and were then pooled. Splenocytes were added to wells of culture plates. 1×10^7 cells in a volume of 900 μl medium were added to each well. Medium was RPMI 1640 containing 10% fetal bovine serum. 100 μl aliquots of CpG ODN solutions in medium were added to each well to give final concentrations in the wells of 0.01-10 μg/ml. After incubation for 36 hours (37 C, 5% CO2 incubator), culture supernatants were collected and assayed for cytokine concentrations using either the Luminex multiplex assay (IFNγ, IP-10, IL-10, IL-6, TNFα) or ELISA (IFNα).
The aim of this study was to investigate the biological activity of selected fragments (putative metabolites) of SEQ ID NO: 2. Activity was determined by measuring the ability of each fragment to induce secretion of TLR9-associated cytokines from mouse splenocytes […].
Stimulation of cytokine secretion by fragments of SEQ ID NO.: 2 is shown in the attached FIGS. 43-45. The oligonucleotides examined are depicted in the Figures by SEQ ID NO and include SEQ ID NO: 15-23. The concentration of oligonucleotide used to produce a particular data point is depicted along the X-axis (μg/ml).

[5] = tested on: guinea pigs; test: Guinea pig AHR protocol (airway resistance and lung compliance); assay type: in vivo; conditions: guinea pigs, 10, 30, 100 or 300 μl/kg, i.t.
Procedure: Male guinea pigs were sensitized on study days 0 and 4 with antigen (ovalbumin, 0.5 ml, 1% OVA i.p./s.c.) with aluminum hydroxide adjuvant. Guinea pigs were antigen challenged by exposure to inhaled ovalbumin aerosol, twice each week for two consecutive weeks. The first challenge was on study day 13. CpG ODN or vehicle (saline, 20 μl) were administered intranasally once each week, two days before the first antigen challenge of the week. Airways hyperreactivity was assessed 24 hours after the last antigen challenge by measuring bronchoconstriction (increase in airway resistance) to intravenous methacholine. For each animal, a dose-response curve to methacholine was obtained, and airway reactivity was quantified as the area under the curve.
Method: Guinea pigs were sensitized as described in Example 10. The first challenge was on study day 13. Guinea pigs were given intranasally either carrier (saline), OVA alone, of concentrations of SEQ ID NO:7 of 10 μl/kg, 30 μl/kg, 100 μl/kg, or 300 μl/kg, i.t.
Method: Guinea pigs were sensitized as described in Example 10. The first challenge was on study day 13. Guinea pigs were given intranasally either carrier (saline), OVA alone, of concentrations of SEQ ID NO:2 of 10 μl/kg, 30 μl/kg, 100 μl/kg, or 300 μl/kg, i.t.

[6] = 100 μg/kg intranasal, both virus-infected and antigen-challenged

Q: Which results are given for “T*C_G*T*C_G*T*C_G*T*T*C_G*G*C*G*C_G*C*G*C*C*G (DNA dT*dCdG*dT*dCdG*dT*dCdG*dT*dT*dCdG*dG*dC*dG*dCdG*dC*dG*dC*dC*dG) [SEQ ID NO: 2, Semi-soft class C CpG ODN]”?
A: production of antigen (ovalbumin)-specific IgE [1]: suppressed; production of antigen (ovalbumin)-specific IgG2a [1]: potentiated; max SI (maximal stimulation index) [2]: 20; antigen-induced eosinophilia ([3]; 100 μg/kg intranasal, antigen challenge alone, FIG. 20): significantly suppress; exacerbated accumulations of neutrophils and mononuclear cells [3, 6]: both suppressed; exacerbated airways inflammation [3, 6]: significantly suppressed; virus-induced neutrophilia ([3]; 100 μg/kg intranasal, virus infection alone, FIG. 20): did not suppress; loss of body weight ([3]; both virus-infected and antigen-challenged): significantly suppressed; induction of TLR9-associated cytokines IFNα, IFNγ, IP-0, IL-6, IL-10 and TNFα [4]: induced; AUC-resistance (airway reactivity, area under the dose-response curve) [5]: dose-dependent reduction

From patent publication US7795235B2, “Semi-soft c-class immunostimulatory oligonucleotides” (Coley Pharmaceutical GmbH, priority 2004, dated 2010)
